Measurements: patent publication US9668988B2, “Controlled release oral pharmaceutical dosage forms comprising MGBG” (Pathologica LLC, priority 2011, dated 2017)

How the values were obtained:
[1] = Multi-species allometric scaling to predict human pharmacokinetic parameters; set-up: species or system humans; details: predicted human, ORAL, based on Mouse, Dog, Rhesus
Excerpt: Multi-species allometric scaling based on pharmacokinetic parameters was employed to calculate predicted pharmacokinetic parameters in humans according to methods known in the art. See, e.g., Ings R M, “Interspecies scaling and comparisons in drug development and toxicokinetics,” Xenobiotica, 1990 November; 20(11):1201-31 and Khor, S P et al., “Dihydropyrimidine dehydrogenase inactivation and 5-fluorouracil pharmacokinetics: allometric scaling of animal data, pharmacokinetics and toxicodynamics of 5-fluorouracil in humans,” Cancer Chemother Pharmacol (1997) 39(3): 833-38. Expected values are given below in Table 2.

[2] = tested on: carrageenan-induced paw edema; assay: murine carrageenan-induced paw edema model; format: in vivo, mice; details: PO BID (totaling 60 mg/kg/day)
Method: (§1) In both the murine carrageenan-induced paw edema and hyperalgesia models, the top efficacious dose of MGBG is 30 mg/kg PO BID (totaling 60 mg/kg/day). Based upon this dosing paradigm in mice, at least two methods to estimate the equivalent dosing in humans may be used.
(§2) In the murine carrageenan models, we also observed efficacy of MGBG at lower doses, including 3 mg/kg PO BID and 10 mg/kg PO BID, which would proportionally convert to human doses of ˜0.42 mg/kg/day and ˜1.2 mg/kg/day.

[3] = tested on: carrageenan-induced hyperalgesia; assay: murine carrageenan-induced hyperalgesia model; format: in vivo, mice; details: PO BID (totaling 60 mg/kg/day)
Method: as §1, §2

beagle dogs = assay: In vivo evaluation of enterically coated capsules: tolerability / clinical observations; details: single oral doses 10, 30, 100 mg/kg
Excerpt: A comparative study of single, escalating doses of enterically coated MGBG capsules was undertaken in order to ascertain the feasibility and pharmacologic effect of delaying release of MGBG until the capsule has passed the stomach. […] Six male beagle dogs aged approximately 4 years 8 months to 5 years 6 months and weighing 10.95 to 12.85 kg (Covance Research Products) were weighed, acclimatized, and randomly assigned to treatment groups as shown below in Table 5.
The test article was administered once at each dose level during the study orally via capsule. Duplicate sets of enteric-coated capsules were prepared for each animal at each dose and evaluated for dissolution. The duplicate sample was placed in a 0.1 N HCl solution, and stirred using a magnetic stir bar and stir plate, for at least two hours. Triplicate samples of the acidic dissolution media were collected for analysis of MGBG content. The capsule was transferred to a phosphate buffer solution (pH 6.8), and stirred using a magnetic stir bar and stir plate, for approximately one hour. The capsule was visually inspected for signs of deformation. […]
Observations for morbidity, mortality, injury, and the availability of food and water were conducted twice daily for all animals. […] On occasion, clinical observations were recorded at unscheduled intervals. Body weights were measured and recorded on Days 1-4, 5, 12, and 32.

SMILES: CC(/C=N/NC(=N)N)=N\NC(=N)N [MGBG, 1,1′[methylethanediylidene]dinitrilodiguanidine]
- CL/F [1]: 20.9 mL/min/kg
- V/F [1]: 41.6 L/kg
- t1/2 [1]: 23.0 h
- CL/F ([1]; Rat): 21.0 mL/min/kg
- V/F ([1]; Rat): 42.4 L/kg
- t1/2 ([1]; Rat): 23.3 h
- top efficacious dose [2]: 30 mg/kg
- top efficacious dose [3]: 30 mg/kg
- tolerability / survival (beagle dogs): All dose levels were tolerated with all animals surviving to study termination
